From US20230227437A1, “IMMUNOMODULATOR” (priority 2020, published 2023)

Columns and labels:
[1] = Drug metabolism properties (pharmacokinetics) in rats; format: in vivo; details: plasma; rat, intravenous injection/oral gavage; read-out: Oral bioavailability F % (rat)
Description: (§1) In order to investigate the drug metabolism property of the compounds provided herein in rats, a compound solution was given to 3 rats by intravenous injection/oral gavage at corresponding doses. After 5 min, 15 min, 30 min, 1 h, 2 h, 4 h, 8 h and 24 h administration, anticoagulated whole blood was collected from rats, and plasma was separated.
(§2) Plasma concentrations of compounds were determined by standard curve calibration method using LC-MS. Using Winnolin 5.2 software, plasma concentration-time data were fitted to pharmacokinetic parameters, including elimination half-life (T1/2), area under the plasma pharmacokinetic curve at the sampling endpoint (AUClast), peak concentration (Cmax), apparent volume of distribution (Vz), total clearance ration (Cl), and absolute bioavailability (F %).

hIL-17A = target: T1, hIL-17A (Homo sapiens, UniProt Q16552); experiment: Inhibition of hIL-17A-induced chemokine GROα/CXCL1 production in HT-29 cell; format: cell-based
T1 construct: purchased R&D 317-ILB
T1 sequence (Q16552 20-155 limits assumed): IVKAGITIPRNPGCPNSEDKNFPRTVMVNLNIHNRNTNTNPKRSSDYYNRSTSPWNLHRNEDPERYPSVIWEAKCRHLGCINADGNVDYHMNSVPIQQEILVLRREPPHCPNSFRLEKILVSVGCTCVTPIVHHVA
In short: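 HT-29 cells stimulated 48 h at 37 °C with 30 ng/mL hIL-17A pre-incubated 1 h with graded compound concentrations; anti-IL-17A antibody (0.3 μg/mL) as positive control. Supernatant GROα measured by ELISA.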

hIL-17A protein = target: T2, hIL-17A protein (Homo sapiens, UniProt Q16552); experiment: Binding to hIL-17A protein through surface plasmon resonance (SPR, Biacore 8K); details: for ka / kd: SPR; for binding to hIL-17A (SPR, in words): compared with the positive compound
T2 sequence (Q16552 24-155): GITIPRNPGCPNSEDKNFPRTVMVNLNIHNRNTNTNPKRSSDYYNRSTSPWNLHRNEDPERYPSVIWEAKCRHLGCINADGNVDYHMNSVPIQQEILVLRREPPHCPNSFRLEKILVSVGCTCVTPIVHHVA
Description: The binding of the compounds provided herein to the hIL-17A protein was tested using SPR, and analyzed using a Biacore 8K system. A positive compound was the compound of Example 32 in WO2020/127685A1.

[2] = test system: imiquimod cream-induced psoriasis model; experiment: Pharmacodynamic test of imiquimod cream-induced psoriasis model in mice; format: in vivo, C57BL/6N mice
Description: The backs of […] female C57BL/6N mice were shaved approximately 2.5×4 cm, and imiquimod (IMQ, Imiquimod) cream was applied continuously from day 1 to day 5 to establish a psoriasis model. The compound 26 provided herein (3, 10, 30 mg/kg) was given once daily by gavage to the mice, an IL-17A antibody solution (Ab, 2 mg/kg) was given by intraperitoneal injection every other day to the mice, or a dexamethasone solution (10 mg/kg) was given once daily by intraperitoneal injection to the mice. […] A skin thickness of mice was measured on the first day and fifth day to examine IMQ-induced skin thickening (FIG. 3B).
The skin of each group of mice was collected on the fifth day to detect IL6 mRNA levels by RT-qPCR (FIG. 3C). […] The plasma of mice in each group was collected on the fifth day to determine the level of IL-6 protein (FIG. 3D).

human IL-17A (hIL-17A) = target: T3, human IL-17A (hIL-17A) (Homo sapiens, UniProt Q16552); experiment: IL-17A enzyme-linked immunosorbent assay (competitive ELISA, receptor-ligand binding)
T3 construct: purchased Sino Biological Inc. 12047-H07B
T3 sequence (Q16552 24-155): T2 sequence (Q16552 24-155)
In short: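 Plates were coated with 0.2 μg/ml hIL-17A and blocked with milk. Compounds were preincubated on the plate for 10 min at 25° C, then 16 nM stock IL-17R was added for 30 min. Bound receptor was detected with anti-Fc HRP and TMB at 450 nm.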

[3] = Drug metabolism properties (pharmacokinetics) in mice; format: in vivo; details: mouse, plasma, intravenous injection/oral gavage, read-out: Oral bioavailability F % (mice)
Description: In order to investigate the drug metabolism property of the compounds provided herein in mice, a compound solution was given to 6 mice by intravenous injection/oral gavage at corresponding doses. Mice were divided into groups A and B for each administration, where anticoagulated whole blood was collected from group A at 5 min, 30 min, 2 h and 8 h after drug administration; and anticoagulated whole blood was collected from group B at 15 min, 1 h, 4 h and 24 h after drug administration. plasma was separated.
as §2

hIL-17A/RA = target: T4, hIL-17A/RA (Homo sapiens, UniProt Q16552); experiment: Reversibility of binding by jump dilution ELISA (hIL-17A/hIL-17RA); details: for maintenance of binding to and inhibition of hIL-17A protein (jump dilution, in words): compared with the positive compound
T4 construct: biotin label (inferred from streptavidin-HRP detection)
T4 sequence (Q16552 24-155): T2 sequence (Q16552 24-155)
Description: The reversibility of the binding of the compounds in Examples to hIL-17A and the binding time of the compound-protein complex were qualitatively and quantitatively analyzed by jump dilution assay. The positive compound was the compound of Example 32 in WO2020/127685 A1. 7 nM hIL-17RA were inoculated to a 96-well plate (100 μL for per well), and incubated at 37° C. for 30 min. A blank group was 100 μL of coating buffer solution. After […] incubation at 4° C., the 96-well plate was washed with PBST (0.05% Tween-20) 4 times, 200 μL for per well each time. The 96-well plate was added with 200 μL 3% BSA (PBST diluted) and closed on a shaker at 37° C. for 30 min. […] The configured hIL7A was mixed with an equal volume of compound in a 200 ul centrifuge tube to obtain a protein-compound mixture. The protein-compound mixture was subjected to pre-incubation at room temperature for 15 min. The protein-compound mixture, positive control group and negative control group were diluted 200×. After closing, the 96-well plate was washed 4 times, and added with dilution 100 μL for per well to incubate at 25° C. for 28, 24, 5, 2 and 0 h. After washing the plate 4 times, 100 μL of Streptavidin-HRP coupled antibody diluted with 1% BSA was added and then incubated for 30 min on a shaker at 25° C. After washing the plate 4 times, 100 μL of TMB substrate solution were added, and incubated away from light for 5-15 min at 25° C. (depending on the color of the reaction). After addition of 20% HCl, an absorbance was measure by a microplate reader at 450 nm.

[4] = Drug metabolism properties (pharmacokinetics) in dogs; format: in vivo; details: both sexes, plasma; dog, intravenous injection/oral gavage; read-out: Oral bioavailability F % (dog)
Description: as §1, with “in dogs,” for “in rats,”, “to 2 groups of dogs (4 dogs (2 males+2 females) for each group)” for “to 3 rats”, “After […]” for “After 5”, “8 h, 12 h, 24” for “8”, “and 36” for “and 24”, “from dogs,” for “from rats,”
as §2

Row | SMILES | bioavailability [1] [%] | IC50 (hIL-17A) [nM] | ka (hIL-17A protein) [M⁻¹ s⁻¹] | kd (hIL-17A protein) [s⁻¹] | binding to hIL-17A (SPR, in words) (hIL-17A protein) | skin pathological injury, HE staining ([2]; 30 mg/kg, fifth day, FIGS. 4A-4D) | IMQ-induced skin inflammation, AUC of PASI scoring ([2]; 3, 10, 30 mg/kg once daily by gavage, FIG. 3A) | skin IL6 mRNA levels by RT-qPCR ([2]; fifth day, FIG. 3C) | IL-6 protein level in plasma ([2]; fifth day, FIG. 3D) | IMQ-induced skin thickening ([2]; skin thickness first day and fifth day, FIG. 3B) | IC50 (human IL-17A (hIL-17A)) [nM] | bioavailability [3] [%] | maintenance of binding to and inhibition of hIL-17A protein (jump dilution, in words) (hIL-17A/RA) | bioavailability [4] [%] | Kd (hIL-17A protein) [nM] | 50% enzyme activity retention time, Value on hIL-17A/RA (5X cpds) (hIL-17A/RA; jump dilution, 5X cpds) [h] | 50% enzyme activity retention time, Value on hIL-17A/RA (10X cpds) (hIL-17A/RA; jump dilution, 10X cpds) [h]
1 | CCc1nonc1C(=O)N[C@H](C(=O)Nc1ccc(-c2c(C)n[nH]c2C)nc1)C1c2ccc(F)cc2OCC12CC2 (stereo partly shown) [Compound 26] | 16 | 267 | 21300 | 1.98e-08 | strong binding to hIL-17A and were much stronger than the positive compound | effective in inhibiting IMQ-induced skin inflammatory cell infiltration and damage | attenuated the level of IMQ-induced skin inflammation with effects similar to those of the IL-17A antibody | dose-dependent reversion | inhibited in a dose-dependent manner | reversed the skin thickening caused by IMQ to varying degrees | 70 | 54 | able to maintain binding to and inhibit the activity of hIL-17A protein for a long time |  |  |  | 
2 | CCc1nonc1C(=O)N[C@H](C(=O)Nc1ccc(-c2c(C)n[nH]c2C)cc1)C1c2cc(F)c(F)cc2OCC12CC2 (stereo partly shown) [Compound 43] | 36 | 57 | 14200 | 1.87e-08 | strong binding to hIL-17A and were much stronger than the positive compound |  |  |  |  |  | 55 | 49 | able to maintain binding to and inhibit the activity of hIL-17A protein for a long time | 18 | 0.00132 | >28 | >28
3 | Cc1n[nH]c(C)c1-c1ccc(NC(=O)[C@@H](NC(=O)c2nonc2C2CC2)C2c3cc(F)c(F)cc3OCC23CC3)cc1 (stereo partly shown) [Compound 49] | 17 | 146 |  |  |  |  |  |  |  |  | 146 | 37 |  | 20 |  |  | 
4 | CCc1nonc1C(=O)N[C@H](C(=O)Nc1ccc(-c2c(C)n[nH]c2C)cc1)C1c2ccc(F)c(F)c2OCC12CC2 (stereo partly shown) [Compound 58] | 28 | 109 |  |  |  |  |  |  |  |  | 54 | 26 |  | 16 |  |  | 
5 | Cc1n[nH]c(C)c1-c1ccc(NC(=O)[C@@H](NC(=O)c2ccnn2C(C)C)C2c3ccc(F)cc3OCC23CC3)cn1 (stereo partly shown) [Compound 18] | 18 | 332 |  |  |  |  |  |  |  |  | 164 | 55 |  | 41 |  |  | 
6 | Cc1nonc1C(=O)N[C@H](C(=O)Nc1ccc(-c2c(C)n[nH]c2C)cc1)C1c2ccc(F)cc2OCC12CC2 (stereo partly shown) [Compound 24] | 56 | 30 | 12400 | 4.8e-08 | strong binding to hIL-17A and were much stronger than the positive compound |  |  |  |  |  | 53 | 51 |  | 27 | 0.00388 |  | 
